Measurements reported in the NIST ThermoML archive (doi:10.1021/je0601513).

Assays:
[1] = refractive index (Na D-line) (dimensionless); xn = mol fraction of the nth substance listed; conditions: 101 kPa, Liquid, Standard Abbe refractometry
[2] = excess molar enthalpy (molar enthalpy of mixing); xn = mol fraction of the nth substance listed; conditions: 101 kPa, Liquid
[3] = xn = mol fraction of the nth substance listed; conditions: 101 kPa, Liquid; for viscosity: Capillary tube (Ostwald / Ubbelohde) method

C[S+](C)[O-] [dimethyl sulfoxide] + CCCO
Conditions	excess molar enthalpy [kcal/mol]	mass density [kg/m3]	refractive index	viscosity [mPa·s]
[1], 288.15 K, x1 = 0.0533	–	–	1.3942	–
[1], 288.15 K, x1 = 0.0938	–	–	1.3979	–
[1], 288.15 K, x1 = 0.1708	–	–	1.405	–
[1], 288.15 K, x1 = 0.2592	–	–	1.4132	–
[1], 288.15 K, x1 = 0.346	–	–	1.4212	–
[1], 288.15 K, x1 = 0.4294	–	–	1.429	–
[1], 288.15 K, x1 = 0.5115	–	–	1.4367	–
[1], 288.15 K, x1 = 0.5981	–	–	1.4449	–
[1], 288.15 K, x1 = 0.6853	–	–	1.4532	–
[1], 288.15 K, x1 = 0.7596	–	–	1.4603	–
[1], 288.15 K, x1 = 0.8438	–	–	1.4685	–
[1], 288.15 K, x1 = 0.9368	–	–	1.4774	–
[1], 298.15 K, x1 = 0.0554	–	–	1.3889	–
[1], 298.15 K, x1 = 0.1366	–	–	1.3966	–
[1], 298.15 K, x1 = 0.22	–	–	1.4045	–
[1], 298.15 K, x1 = 0.2987	–	–	1.4119	–
[1], 298.15 K, x1 = 0.4289	–	–	1.4239	–
[1], 298.15 K, x1 = 0.5022	–	–	1.4307	–
[1], 298.15 K, x1 = 0.5992	–	–	1.4398	–
[1], 298.15 K, x1 = 0.677	–	–	1.4472	–
[1], 298.15 K, x1 = 0.7656	–	–	1.4558	–
[1], 298.15 K, x1 = 0.8358	–	–	1.4627	–
[1], 298.15 K, x1 = 0.9181	–	–	1.4705	–
[1], 298.15 K, x1 = 0.9646	–	–	1.4747	–
[1], 308.15 K, x1 = 0.0537	–	–	1.3843	–
[1], 308.15 K, x1 = 0.1336	–	–	1.3916	–
[1], 308.15 K, x1 = 0.2147	–	–	1.3991	–
[1], 308.15 K, x1 = 0.2987	–	–	1.407	–
[1], 308.15 K, x1 = 0.3876	–	–	1.4152	–
[1], 308.15 K, x1 = 0.4707	–	–	1.4229	–
[1], 308.15 K, x1 = 0.5552	–	–	1.4308	–
[1], 308.15 K, x1 = 0.6418	–	–	1.4389	–
[1], 308.15 K, x1 = 0.7191	–	–	1.4462	–
[1], 308.15 K, x1 = 0.7998	–	–	1.454	–
[1], 308.15 K, x1 = 0.877	–	–	1.4614	–
[1], 308.15 K, x1 = 0.965	–	–	1.4698	–
[2], 288.15 K, x1 = 0.042	0.0514	–	–	–
[2], 288.15 K, x1 = 0.0807	0.0896	–	–	–
[2], 288.15 K, x1 = 0.1163	0.118	–	–	–
[2], 288.15 K, x1 = 0.1493	0.139	–	–	–
[2], 288.15 K, x1 = 0.2084	0.168	–	–	–
[2], 288.15 K, x1 = 0.2598	0.182	–	–	–
[2], 288.15 K, x1 = 0.3449	0.196	–	–	–
[2], 288.15 K, x1 = 0.4124	0.196	–	–	–
[2], 288.15 K, x1 = 0.5129	0.189	–	–	–
[2], 288.15 K, x1 = 0.6124	0.173	–	–	–
[2], 288.15 K, x1 = 0.6781	0.158	–	–	–
[2], 288.15 K, x1 = 0.7595	0.128	–	–	–
[2], 288.15 K, x1 = 0.8456	0.093	–	–	–
[2], 288.15 K, x1 = 0.8634	0.0822	–	–	–
[2], 288.15 K, x1 = 0.8939	0.0676	–	–	–
[2], 288.15 K, x1 = 0.9267	0.0488	–	–	–
[2], 288.15 K, x1 = 0.9619	0.0265	–	–	–
[2], 298.15 K, x1 = 0.0422	0.0495	–	–	–
[2], 298.15 K, x1 = 0.0809	0.0875	–	–	–
[2], 298.15 K, x1 = 0.1166	0.117	–	–	–
[2], 298.15 K, x1 = 0.1497	0.141	–	–	–
[2], 298.15 K, x1 = 0.2089	0.167	–	–	–
[2], 298.15 K, x1 = 0.2604	0.182	–	–	–
[2], 298.15 K, x1 = 0.3456	0.199	–	–	–
[2], 298.15 K, x1 = 0.4131	0.201	–	–	–
[2], 298.15 K, x1 = 0.5137	0.194	–	–	–
[2], 298.15 K, x1 = 0.6131	0.175	–	–	–
[2], 298.15 K, x1 = 0.6787	0.16	–	–	–
[2], 298.15 K, x1 = 0.7602	0.134	–	–	–
[2], 298.15 K, x1 = 0.8086	0.111	–	–	–
[2], 298.15 K, x1 = 0.8638	0.0853	–	–	–
[2], 298.15 K, x1 = 0.8942	0.0674	–	–	–
[2], 298.15 K, x1 = 0.9269	0.0492	–	–	–
[2], 298.15 K, x1 = 0.9621	0.0265	–	–	–
[2], 308.15 K, x1 = 0.0421	0.0507	–	–	–
[2], 308.15 K, x1 = 0.0808	0.0872	–	–	–
[2], 308.15 K, x1 = 0.1234	0.122	–	–	–
[2], 308.15 K, x1 = 0.1495	0.14	–	–	–
[2], 308.15 K, x1 = 0.2087	0.167	–	–	–
[2], 308.15 K, x1 = 0.2601	0.183	–	–	–
[2], 308.15 K, x1 = 0.3454	0.198	–	–	–
[2], 308.15 K, x1 = 0.4128	0.199	–	–	–
[2], 308.15 K, x1 = 0.5134	0.193	–	–	–
[2], 308.15 K, x1 = 0.612	0.175	–	–	–
[2], 308.15 K, x1 = 0.6784	0.16	–	–	–
[2], 308.15 K, x1 = 0.7599	0.129	–	–	–
[2], 308.15 K, x1 = 0.8084	0.111	–	–	–
[2], 308.15 K, x1 = 0.8636	0.082	–	–	–
[2], 308.15 K, x1 = 0.8941	0.0698	–	–	–
[2], 308.15 K, x1 = 0.9268	0.049	–	–	–
[2], 308.15 K, x1 = 0.962	0.027	–	–	–
[3], 288.15 K, x1 = 0.0533	–	822.73	–	2.251
[3], 288.15 K, x1 = 0.0938	–	834.33	–	2.1
[3], 288.15 K, x1 = 0.1708	–	856.51	–	1.937
[3], 288.15 K, x1 = 0.2592	–	882.15	–	1.835
[3], 288.15 K, x1 = 0.346	–	907.54	–	1.81
[3], 288.15 K, x1 = 0.4294	–	932.12	–	1.819
[3], 288.15 K, x1 = 0.5115	–	956.49	–	1.864
[3], 288.15 K, x1 = 0.5981	–	982.38	–	1.927
[3], 288.15 K, x1 = 0.6853	–	1008.66	–	1.999
[3], 288.15 K, x1 = 0.7596	–	1031.23	–	2.086
[3], 288.15 K, x1 = 0.8438	–	1057.01	–	2.206
[3], 288.15 K, x1 = 0.9368	–	1085.71	–	2.348
[3], 298.15 K, x1 = 0.0554	–	815.18	–	1.799
[3], 298.15 K, x1 = 0.1366	–	838.3	–	1.635
[3], 298.15 K, x1 = 0.22	–	862.21	–	1.522
[3], 298.15 K, x1 = 0.2987	–	884.95	–	1.486
[3], 298.15 K, x1 = 0.4289	–	922.94	–	1.487
[3], 298.15 K, x1 = 0.5022	–	944.55	–	1.517
[3], 298.15 K, x1 = 0.5992	–	973.37	–	1.575
[3], 298.15 K, x1 = 0.677	–	996.69	–	1.633
[3], 298.15 K, x1 = 0.7656	–	1023.43	–	1.71
[3], 298.15 K, x1 = 0.8358	–	1044.81	–	1.786
[3], 298.15 K, x1 = 0.9181	–	1070.04	–	1.881
[3], 298.15 K, x1 = 0.9646	–	1084.38	–	1.942
[3], 308.15 K, x1 = 0.0537	–	806.44	–	1.439
[3], 308.15 K, x1 = 0.1336	–	828.96	–	1.319
[3], 308.15 K, x1 = 0.2147	–	852.03	–	1.264
[3], 308.15 K, x1 = 0.2987	–	876.11	–	1.237
[3], 308.15 K, x1 = 0.3876	–	901.81	–	1.243
[3], 308.15 K, x1 = 0.4707	–	926.08	–	1.265
[3], 308.15 K, x1 = 0.5552	–	950.93	–	1.296
[3], 308.15 K, x1 = 0.6418	–	976.65	–	1.343
[3], 308.15 K, x1 = 0.7191	–	999.78	–	1.401
[3], 308.15 K, x1 = 0.7998	–	1024.11	–	1.474
[3], 308.15 K, x1 = 0.877	–	1047.58	–	1.545
[3], 308.15 K, x1 = 0.965	–	1074.53	–	1.621
